Measured values from ChEMBL document CHEMBL1201862, “PubChem BioAssay data set” (2004).
The source made the active and inactive calls. Rule as the data show it, for most assays here: actives have a measured EC50 and inactives only a lower limit.

Columns and labels:
[1] = test system: H4; assay: Luminescence Cell-Based Dose Response HTS to Identify Activators of 5'UTR Stem-Loop Driven Prion Protein mRNA Translation in H4 Neuroglioblastoma Cells. [Related pubchem assays: 1829 (Project Summary), 1814 (Primary HTS)]; assay type: functional; conditions: Homo sapiens
[2] = Luminescence Cell-Based Dose Confirmation HTS to Identify Activators of 5'UTR Stem-Loop Driven Alpha-Synuclein mRNA Translation in H4 Neuroglioblastoma Cells. [Related pubchem assays: 1829 (Project Summary), 1814 (Primary HTS)]; assay type: functional
[3] = Luminescence Cell-Based Dose Response HTS to Identify Activators of Luciferase Translation or Activity in H4 […] Cells. [Related pubchem assays: 1829 (Project Summary), 1814 (Primary HTS)]; assay type: functional
[4] = biological target: T1, Corticotropin-releasing factor receptor 2/Corticotropin-releasing factor-binding protein (Homo sapiens, UniProt P24387+Q13324); assay: activators of CRF receptor 2 with binding protein – uHTS hits, confirmation (AID 602473); assay type: functional; conditions: read-out: EC50_Mean
T1 sequence (Q13324 whole entry): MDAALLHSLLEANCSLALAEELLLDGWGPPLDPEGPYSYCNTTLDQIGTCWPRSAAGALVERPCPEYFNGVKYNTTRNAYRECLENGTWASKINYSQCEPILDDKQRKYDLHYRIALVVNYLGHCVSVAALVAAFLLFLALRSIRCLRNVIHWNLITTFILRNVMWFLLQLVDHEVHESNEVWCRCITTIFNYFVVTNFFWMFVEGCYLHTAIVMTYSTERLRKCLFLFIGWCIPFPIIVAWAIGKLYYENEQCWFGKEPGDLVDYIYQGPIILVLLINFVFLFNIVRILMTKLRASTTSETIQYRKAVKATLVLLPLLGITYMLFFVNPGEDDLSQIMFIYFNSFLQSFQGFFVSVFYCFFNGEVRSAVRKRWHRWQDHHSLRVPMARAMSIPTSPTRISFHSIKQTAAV
T1 sequence (P24387 whole entry): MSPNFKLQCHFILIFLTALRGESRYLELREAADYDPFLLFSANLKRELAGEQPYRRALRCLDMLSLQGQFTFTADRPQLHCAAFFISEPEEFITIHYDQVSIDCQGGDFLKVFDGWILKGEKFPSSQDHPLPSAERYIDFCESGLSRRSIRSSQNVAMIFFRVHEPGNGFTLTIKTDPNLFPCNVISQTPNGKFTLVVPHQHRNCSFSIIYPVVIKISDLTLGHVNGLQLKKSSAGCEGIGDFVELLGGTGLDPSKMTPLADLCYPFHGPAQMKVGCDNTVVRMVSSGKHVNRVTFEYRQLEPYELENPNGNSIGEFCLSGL

[5] = biological target: T1, Corticotropin-releasing factor receptor 2/Corticotropin-releasing factor-binding protein; assay: Dose Response confirmation of uHTS hits for small molecule antagonists of the CRF-binding protein and CRF-R2 receptor complex.; assay type: functional; conditions: read-out: IC50_Mean
[6] = NIH3T3 cell viability loss – ATP luminescence, mouse fibroblasts, counter-screen, dose response (AID 2010); assay type: functional, cell-based;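 also: cells exposed to compound for about 90 hours before reading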
[7] = Trypanosoma cruzi growth suppression in host cells – NIH3T3 host cells, beta-gal luminescence, confirmation (AID 2044); assay type: functional, cell-based;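 also: intracellular parasites grown in NIH/3T3 mouse fibroblasts as host cells; luminescent beta-galactosidase reporter signal from transgenic T. cruzi replicating inside host cells; inhibitors lower the luminescence signal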
[8] = biological target: Paired box protein Pax-8 (Homo sapiens, UniProt Q06710); assay: PAX8 transcriptional activity inhibition in RMG-I – RMG-I cells, luciferase, cherry-pick, dose response (AID 687027); assay type: functional, cell-based;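 also: luciferase reporter driven by Pax8 target thyroperoxidase promoter measured by SteadyGlo luminescence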
Sequence of Paired box protein Pax-8 (Q06710 whole entry): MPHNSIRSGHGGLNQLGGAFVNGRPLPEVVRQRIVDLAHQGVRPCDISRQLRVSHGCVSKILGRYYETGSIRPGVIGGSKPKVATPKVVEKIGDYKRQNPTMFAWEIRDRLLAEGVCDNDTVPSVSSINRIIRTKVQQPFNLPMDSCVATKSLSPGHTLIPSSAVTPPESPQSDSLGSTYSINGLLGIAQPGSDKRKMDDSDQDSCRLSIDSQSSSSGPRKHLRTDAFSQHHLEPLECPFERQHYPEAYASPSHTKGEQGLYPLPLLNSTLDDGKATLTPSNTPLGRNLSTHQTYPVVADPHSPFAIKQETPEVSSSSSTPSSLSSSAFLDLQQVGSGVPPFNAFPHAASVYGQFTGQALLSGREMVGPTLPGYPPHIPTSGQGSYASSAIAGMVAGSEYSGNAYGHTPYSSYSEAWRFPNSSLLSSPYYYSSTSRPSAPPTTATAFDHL

[9] = non-specific 3'UTR reporter inhibition in Clone20-Shn3RL – cell-based, Renilla luciferase, cherry-picked, counter-screen for Shn3 inhibitor project, dose response (AID 624133); assay type: functional
[10] = reduction of Shn3 3'UTR-driven luciferase in osteoblasts – cell-based, Clone20 osteoblasts, firefly luciferase, cherry-picked, dose response (AID 624132); assay type: functional;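 also: firefly luciferase luminescence from reporter carrying the Shn3 3'UTR in osteoblasts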
[11] = loss of viability in HepG2 cells – cell-based, CellTiter-Glo, cherry-picked, cytotoxicity control for Shn3 inhibitor project, dose response (AID 624134); assay type: functional

SMILES | EC50 [1] | EC50 [2] | EC50 [3] | EC50 [4] | IC50 [5] | also measured
c1ccc2c(c1)oc1c(NCC3CCCO3)ncnc12 (centres undefined) | 7.09 µM (active) | 8.39 µM (active) | 19 µM (active) |  |  | 
Cc1ccsc1C1Nc2ccccc2-c2nc3ccccc3n21 (centres undefined) | 26.1 µM (active) | 24.3 µM (active) | 60.7 µM (active) |  |  | 
NC(Cc1ccccc1Sc1ccccc1)=NO |  |  |  | > 53 µM (inactive) | > 47.1 µM (inactive) | 
CN(Cc1cccs1)C(=O)Cc1csc(-c2ccccc2)n1 | 15.9 µM (active) | 32 µM (active) | 10.1 µM (active) |  |  | 
COc1cc(CCC(=O)NC2(C)CCS(=O)(=O)C2)cc(OC)c1OC (centres undefined) |  |  |  | > 53 µM (inactive) | > 47.1 µM (inactive) | 
COc1ccc(CCN2CCCC(CN(C)C(=O)c3cc(C)oc3C)C2)cc1 (centres undefined) | 32.7 µM (active) | 41.5 µM (active) | 31.9 µM (active) |  |  | EC50 [6]: > 60 µM (not active); EC50 [7]: 0.149 µM (active)
COc1cc2c(c(OC)c1OC)-c1ccc(SC)c(=O)cc1C(NC=O)CC2 (centres undefined) |  |  |  |  |  | AC50 [8]: < 0.26 µM (active)
COc1ccc(S(=O)(=O)N2CCOCC2)cc1NC(=O)CC1CC2CCC1C2 (centres undefined) |  |  |  | > 53 µM (inactive) | > 47.1 µM (inactive) | 
COc1ccc2ccccc2c1CNCCCN1CCOCC1 |  |  |  | > 53 µM (inactive) | > 47.1 µM (inactive) | 
O=C(NCc1cc(C(F)(F)F)ccc1Cl)c1cccc2c1C(=O)c1ccc(N3CCCCC3)cc1S2(=O)=O |  |  |  | 6.26 µM (active) |  | 
COc1cccc(CNC(=O)C2CCC(=O)N(CC3CCCCC3)C2)c1OC (centres undefined) |  |  |  | > 53 µM (inactive) | > 47.1 µM (inactive) | 
COc1ccc(CC(N)c2csc(NC(=O)Nc3cccc(C(F)(F)F)c3)n2)cc1 (centres undefined) |  |  |  |  |  | AC50 [9]: 7.68 µM (active); AC50 [10]: 8.4 µM (active); AC50 [11]: 11 µM (active)
Cc1ccc(-c2nn(-c3ccccc3)cc2/C=N/n2c(S)nnc2-c2ccncc2)cc1 | 34.1 µM (active) | > 120 µM (not active) | 34.3 µM (active) |  |  | 
C[C@@H]1CN([C@@H](C)CO)C(=O)c2cc(NC(=O)Nc3cccc4ccccc34)ccc2O[C@@H]1CN(C)Cc1ccc2c(c1)OCO2 |  |  |  |  |  | AC50 [8]: 18.5 µM (active)
C[C@@H]1CCCCO[C@H](CN(C)C(=O)Nc2ccc(C(F)(F)F)cc2)[C@@H](C)CN([C@@H](C)CO)C(=O)c2cc(NS(=O)(=O)c3ccccc3)ccc2O1 |  |  |  |  |  | AC50 [8]: 3.24 µM (active)
